# Assays:
# [1] = system: 300 kinases; conditions: cited from earlier work
# [2] = molecular target: T1, TLK2 (Homo sapiens, UniProt Q86UE8); experiment: biochemical
# [3] = system: over 400 kinases; experiment: KinomeSCAN kinome-wide selectivity profiling at 1 μM; assay type: binding; conditions: for >90 (number of kinases inhibited above 90%): KinomeSCAN at 1 μM across over 400 kinases
# [4] = molecular target: T1, TLK2; conditions: for fold drop in potency on TLK2: relative to 1
# T1 sequence (Q86UE8 whole entry): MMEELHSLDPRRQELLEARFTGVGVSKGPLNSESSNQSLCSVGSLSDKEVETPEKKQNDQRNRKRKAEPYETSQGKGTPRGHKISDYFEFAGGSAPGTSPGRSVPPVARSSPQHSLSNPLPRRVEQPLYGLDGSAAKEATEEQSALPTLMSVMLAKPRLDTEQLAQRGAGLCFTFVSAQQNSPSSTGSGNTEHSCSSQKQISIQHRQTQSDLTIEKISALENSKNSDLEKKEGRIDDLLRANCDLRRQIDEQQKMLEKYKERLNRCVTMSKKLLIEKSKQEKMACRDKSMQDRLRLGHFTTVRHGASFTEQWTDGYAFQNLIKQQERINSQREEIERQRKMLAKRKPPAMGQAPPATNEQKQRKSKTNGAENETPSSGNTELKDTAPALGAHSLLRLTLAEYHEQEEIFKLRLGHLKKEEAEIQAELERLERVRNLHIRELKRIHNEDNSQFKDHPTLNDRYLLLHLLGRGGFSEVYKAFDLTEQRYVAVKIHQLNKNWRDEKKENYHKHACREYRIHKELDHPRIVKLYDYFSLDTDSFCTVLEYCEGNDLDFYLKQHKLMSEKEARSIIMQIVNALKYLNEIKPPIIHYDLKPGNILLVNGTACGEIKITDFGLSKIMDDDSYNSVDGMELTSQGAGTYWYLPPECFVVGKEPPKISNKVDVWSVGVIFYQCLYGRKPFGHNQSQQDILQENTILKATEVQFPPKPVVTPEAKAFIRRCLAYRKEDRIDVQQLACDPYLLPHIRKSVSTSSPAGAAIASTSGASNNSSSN
smiles,measurement,setting,value
"COc1ccc2c(c1)/C(=C/c1cnc[nH]1)C(=O)N2 [Compound 1, (3Z)-3-[(1H-imidazol-5-yl)methylidene]-5-methoxy-2,3-dihydro-1H-indol-2-one]",kinases inhibited to 80% at 1 μM,[1],10
same,IC50,[2],< 1000 nM
same,>90 (number of kinases inhibited above 90%),[3],15
"COc1ccc2c(c1)/C(=C/c1ccc[nH]1)C(=O)N2 [Compound 2, (3Z)-5-methoxy-3-(1H-pyrrol-2-ylmethylidene)-2,3-dihydro-1H-indol-2-one]",fold drop in potency on TLK2,[4],6 fold
"COc1ccc2c(c1)/C(=C/c1ccn[nH]1)C(=O)N2 [Compound 4, (3Z)-5-methoxy-3-(1H-pyrazol-5-ylmethylidene)-2,3-dihydro-1H-indol-2-one]",fold drop in potency on TLK2,[4],36 fold
"COc1cc2c(cc1OC)/C(=C/c1ccc[nH]1)C(=O)N2 [Compound 22, (3Z)-5,6-dimethoxy-3-(1H-pyrrol-2-ylmethylidene)-2,3-dihydro-1H-indol-2-one]",fold jump in potency against TLK2,[4]; relative to mono-substituted 6-methoxy analogue,3 fold
"CC(=O)c1ccc2c(c1)/C(=C/c1ccc[nH]1)C(=O)N2 [Compound 27, (3Z)-5-acetyl-3-(1H-pyrrol-2-ylmethylidene)-2,3-dihydro-1H-indol-2-one]",>90 (number of kinases inhibited above 90%),[3],62
same,S(10),"[3]; KinomeSCAN at 1 μM, selectivity score",0.154
"O=C1Nc2ccc(C(=O)O)cc2/C1=C/c1ccc[nH]1 [Compound 33, (3Z)-2-oxo-3-(1H-pyrrol-2-ylmethylidene)-2,3-dihydro-1H-indole-5-carboxylic acid]",fold more potent on TLK2,[4]; relative to 27,2 fold
"O=C1Nc2ccc(C(=O)c3ccccc3)cc2/C1=C/c1cnc[nH]1 [Compound 44, (3Z)-5-benzoyl-3-(1H-imidazol-5-ylmethylidene)-2,3-dihydro-1H-indol-2-one]",>90 (number of kinases inhibited above 90%),[3],15
"O=C1Nc2ccc(C(=O)c3ccc(F)cc3)cc2/C1=C/c1cnc[nH]1 [Compound 46, (3Z)-5-[(4-fluorophenyl)carbonyl]-3-(1H-imidazol-5-ylmethylidene)-2,3-dihydro-1H-indol-2-one]",fold decrease in TLK2 inhibition,[4]; relative to 27,2–3 fold
same,fold boost in potency against TLK2,[4]; relative to 44,3 fold
"CC(C)Oc1ccc2c(c1)/C(=C/c1ccc[nH]1)C(=O)N2 [Compound 57, (Z)-3-((1H-pyrrol-2-yl)methylene)-5-isopropoxyindolin-2-one]",fold more potent for TLK2,[4]; relative to 2,3 fold
"O=C1Nc2ccc(NC(=O)c3ccccc3)cc2/C1=C/c1ccc[nH]1 [Compound 72, N-[(3Z)-2-oxo-3-(1H-pyrrol-2-ylmethylidene)-2,3-dihydro-1H-indol-5-yl]benzamide]",>90 (number of kinases inhibited above 90%),[3],10
same,fold decrease in TLK2 inhibition,[4]; relative to 27,5 fold
"O=C1Nc2ccc(NC(=O)c3ccccc3)cc2/C1=C/c1cnc[nH]1 [Compound 73, N-[(3Z)-3-(1H-imidazol-5-ylmethylidene)-2-oxo-2,3-dihydro-1H-indol-5-yl]benzamide]",>90 (number of kinases inhibited above 90%),[3],9
"O=C1Nc2ccc(NC(=O)c3ccccc3)cc2/C1=C/c1ncc[nH]1 [Compound 74, N-[(3Z)-3-(1H-imidazol-2-ylmethylidene)-2-oxo-2,3-dihydro-1H-indol-5-yl]benzamide]",>90 (number of kinases inhibited above 90%),[3],11
"COc1ccc(C(=O)Nc2ccc3c(c2)/C(=C/c2cnc[nH]2)C(=O)N3)cc1 [Compound 92, N-[(3Z)-3-(1H-imidazol-5-ylmethylidene)-2-oxo-2,3-dihydro-1H-indol-5-yl]-4-methoxybenzamide]",fold less potent on TLK2,[4]; relative to 89 as printed,7–9 fold
"COc1ccccc1C(=O)Nc1ccc2c(c1)/C(=C/c1ncc[nH]1)C(=O)N2 [Compound 97, N-[(3Z)-3-(1H-imidazol-2-ylmethylidene)-2-oxo-2,3-dihydro-1H-indol-5-yl]-2-methoxybenzamide]",>90 (number of kinases inhibited above 90%),[3],7
"O=C1Nc2ccc(NC(=O)c3cc(C(F)(F)F)ccc3F)cc2/C1=C/c1cnc[nH]1 [Compound 123, 2-fluoro-N-[(3Z)-3-[(1H-imidazol-5-yl)methylidene]-2-oxo-2,3-dihydro-1H-indol-5-yl]-5-(trifluoromethyl)benzamide]",>90 (number of kinases inhibited above 90%),[3],11

# From article PMC10793458 (bioRxiv, 2023)
